Test results: US20230002334A1, “TRPM8 MODULATORS” (Givaudan SA, priority 2019, published 2023)

molecular target: T1, hTRPM8 (Homo sapiens, UniProt Q7Z2W7); assay: Assay on TRPM8 modulators: calcium imaging (Fluo-4, Flexstation) in HEK293 cell line stably expressing hTRPM8; format: cell-based; details: HEK293 cells stably expressing hTRPM8, calcium influx, sigmoidal dose-response fit; read-out: EC50
T1 construct: expressed in transfected cells
Experimental: A HEK293 cell line stably expressing hTRPM8 was generated according to Klein et al., (Chem. Senses 36: 649-658, 2011) and receptor activation was monitored by calcium imaging in a Flexstation. For Ca-imaging assays of TRPM8 channel activation, cells were seeded on day 0 at a density of 12000 cells per well in Dulbecco's modified Eagle medium (DMEM) containing 9% foetal bovine serum in black, clear bottom 96-well plates that had been coated with 0.001% polyethyleneimine (molecular weight=60 000, Acros Organics). On day 2, agonists were evaluated via calcium imaging using Fluo-4. Briefly, growth medium was discarded, and the cells were incubated in the dark for 1 h at 37° C. in 50 μL loading buffer consisting of 2.7 μM Fluo-4 AM (Invitrogen) and […] probenecid (Sigma-Aldrich) in DMEM (without serum). After incubation, the plates were washed five times with 100 μL of assay buffer (in mM: 130 NaCl, 5 KCl, 10 HEPES, 2 CaCl2, and 10 glucose, pH7.4.) and further incubated in the dark at room temperature for 30 min. The cells were then washed five times with 100 μL assay buffer and then calcium influx to serial dilutions of inventive compounds were measured in a Flexstation 3 (Molecular Devices). Receptor activation was initiated following addition of 20 μl of a 10-fold concentrated ligand stock solution, which is also prepared in assay buffer. Fluorescence was continuously monitored for 15 seconds prior to ligand addition and for 105 seconds after ligand addition, for a total of 120 seconds. Maximal receptor activation in relation to solvent control and relative to 31.6 μM menthol is determined. Data from serial dilutions were processed with a KNIME workflow to fit a sigmoidal dose-response curve and to extrapolate EC50 values.

T1 sequence (Q7Z2W7 whole entry): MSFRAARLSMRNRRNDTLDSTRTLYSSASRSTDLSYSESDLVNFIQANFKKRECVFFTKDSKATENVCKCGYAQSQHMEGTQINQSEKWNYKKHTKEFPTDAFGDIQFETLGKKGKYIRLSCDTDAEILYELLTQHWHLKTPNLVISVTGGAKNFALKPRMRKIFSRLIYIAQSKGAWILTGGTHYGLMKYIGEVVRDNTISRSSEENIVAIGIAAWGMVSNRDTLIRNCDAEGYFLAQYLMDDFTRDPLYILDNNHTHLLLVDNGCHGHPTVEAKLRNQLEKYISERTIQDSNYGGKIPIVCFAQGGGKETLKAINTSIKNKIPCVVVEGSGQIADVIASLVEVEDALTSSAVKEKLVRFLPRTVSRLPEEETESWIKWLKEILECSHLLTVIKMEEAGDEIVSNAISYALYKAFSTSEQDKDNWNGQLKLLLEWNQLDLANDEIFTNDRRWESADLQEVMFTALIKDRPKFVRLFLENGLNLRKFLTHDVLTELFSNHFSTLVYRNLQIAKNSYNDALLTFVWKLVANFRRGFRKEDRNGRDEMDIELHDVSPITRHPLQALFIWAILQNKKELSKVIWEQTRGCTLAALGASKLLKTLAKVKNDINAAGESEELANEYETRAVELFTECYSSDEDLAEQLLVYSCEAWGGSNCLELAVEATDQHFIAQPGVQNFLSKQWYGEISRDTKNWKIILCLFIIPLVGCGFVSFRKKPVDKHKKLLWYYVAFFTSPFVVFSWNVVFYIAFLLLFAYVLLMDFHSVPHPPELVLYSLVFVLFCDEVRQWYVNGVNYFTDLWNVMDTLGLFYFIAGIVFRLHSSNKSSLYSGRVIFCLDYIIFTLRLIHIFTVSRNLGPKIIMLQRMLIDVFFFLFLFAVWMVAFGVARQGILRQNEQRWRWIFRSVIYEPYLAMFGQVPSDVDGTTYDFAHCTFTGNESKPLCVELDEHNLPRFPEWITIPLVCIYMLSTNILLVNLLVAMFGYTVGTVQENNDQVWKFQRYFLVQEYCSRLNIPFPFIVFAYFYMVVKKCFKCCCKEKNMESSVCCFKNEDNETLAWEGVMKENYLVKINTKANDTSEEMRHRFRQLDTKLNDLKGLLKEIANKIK

| SMILES | EC50 [nM] |
| --- | --- |
| CN1OC(C)(C)[C@@H]2CCC(c3ccccc3)C[C@H]21 (mixture of isomers) [Compound 115, rac-(3aR,7aR)-1,3,3-trimethyl-6-phenyloctahydrobenzo[c]isoxazole] | 1000 to 35000 |
| CC(C)=CC[C@H]1C[C@@H]2[C@@H]([C@@H](C)C1)N(C(C)C)OC2(C)C (racemic) [Compound 62, rac-(3aR,5R,7S,7aR)-1-isopropyl-3,3,7-trimethyl-5-(3-methylbut-2-en-1-yl)octahydrobenzo[c]isoxazole] | 300 to 1000 |
| CCN1OC(C)(C)[C@@H]2C[C@](C)(CC=C(C)C)C[C@H](C)[C@H]21 (racemic) [Compound 53, rac-(3aR,5R,7S,7aR)-1-ethyl-3,3,5,7-tetramethyl-5-(3-methylbut-2-en-1-yl)octahydrobenzo[c]isoxazole] | 50 to 300 |
| COc1ccc(C#N)cc1[C@]1(C)C[C@@H](C)[C@@H]2[C@@H](C1)C(C)(C)ON2C (racemic) [Compound 132, rac-4-methoxy-3-((3aR,5R,7R,7aR)-1,3,3,5,7-pentamethyloctahydrobenzo[c]isoxazol-5-yl)benzonitrile] | 300 to 1000 |
| CC1CC(C)[C@H]2[C@@H](C1C)C(C)(C)ON2C (mixture of isomers) [Compound 117, rac-(3aR,7aS)-1,3,3,4,5,7-hexamethyloctahydrobenzo[c]isoxazole] | 1000 to 35000 |
| CCC1CC(CC)[C@@H]2[C@@H](C1)C(C)(C)ON2CC (mixture of isomers) [Compound 116, rac-(3aR,7aR)-1,5,7-triethyl-3,3-dimethyloctahydrobenzo[c]isoxazole] | 1000 to 35000 |
| CCCC[C@@H]1CC[C@@H]2[C@@H](C1)C(C)(C)ON2C(C)C (racemic) [Compound 29, rac-(3aR,5R,7aR)-5-butyl-1-isopropyl-3,3-dimethyloctahydrobenzo[c]isoxazole] | 1000 to 35000 |
| CCC[C@@H]1CC[C@@H]2[C@@H](C1)C(C)(C)ON2CC (racemic) [Compound 25, rac-(3aR,5R,7aR)-1-ethyl-3,3-dimethyl-5-propyloctahydrobenzo[c]isoxazole] | 300 to 1000 |
| CCN1OC(C)(C)[C@@H]2C[C@](C)(c3cc(C#N)ccc3C)C[C@H](C)[C@H]21 (racemic) [Compound 125, rac-3-((3aR,5R,7S,7aR)-1-ethyl-3,3,5,7-tetramethyloctahydrobenzo[c]isoxazol-5-yl)-4-methylbenzonitrile] | < 50 |
| Cc1cc(C#N)ccc1[C@@]1(C)C[C@@H]2[C@@H]([C@@H](C)C1)N(C)OC2(C)C (racemic) [Compound 130, rac-3-methyl-4-((3aR,5R,7S,7aR)-1,3,3,5,7-pentamethyloctahydrobenzo[c]isoxazol-5-yl)benzonitrile] | 50 to 300 |
| COc1ccc(C#N)cc1[C@@]1(C)C[C@@H]2[C@@H]([C@@H](C)C1)N(C)OC2(C)C (racemic) [Compound 133, rac-4-methoxy-3-((3aR,5R,7S,7aR)-1,3,3,5,7-pentamethyloctahydrobenzo[c]isoxazol-5-yl)benzonitrile] | < 50 |
| C[C@H]1C[C@@](C)(c2cccc3ccccc23)C[C@@H]2[C@@H]1N(C)OC2(C)C (racemic) [Compound 44, rac-(3aR,5R,7S,7aR)-1,3,3,5,7-pentamethyl-5-(naphthalen-1-yl)octahydrobenzo[c]isoxazole] | 300 to 1000 |
| CCC1(C)CC(C)C2C(C1)C(C)(C)ON2C (stereo not drawn) [Compound 20, 5-ethyl-1,3,3,5,7-pentamethyloctahydrobenzo[c]isoxazole] | 1000 to 35000 |
| C[C@H]1C[C@@](C)(c2ccc(Cl)c(C#N)c2)C[C@@H]2[C@@H]1N(C)OC2(C)C (racemic) [Compound 121, rac-2-chloro-5-((3aR,5R,7S,7aR)-1,3,3,5,7-pentamethyloctahydrobenzo[c]isoxazol-5-yl)benzonitrile] | < 50 |
| Cc1ccccc1[C@H]1C[C@@H]2[C@@H]([C@@H](C)C1)N(C)OC2(C)C (racemic) [Compound 51, rac-(3aR,5R,7S,7aR)-1,3,3,7-tetramethyl-5-(o-tolyl)octahydrobenzo[c]isoxazole] | 300 to 1000 |
| CC(C)CC[C@@]1(C)C[C@@H]2[C@@H]([C@@H](C)C1)N(C(C)C)OC2(C)C (racemic) [Compound 112, rac-(3aR,5R,S,7aR)-5-isopentyl-1-isopropyl-3,3,5,7-tetramethyloctahydrobenzo[c]isoxazole] | 50 to 300 |
| Cc1ccc([C@@]2(C)C[C@@H]3[C@@H]([C@@H](C)C2)N(C)OC3(C)C)cc1C#N (racemic) [Compound 123, rac-2-methyl-5-((3aR,5R,7S,7aR)-1,3,3,5,7-pentamethyloctahydrobenzo[c]isoxazol-5-yl)benzonitrile] | 50 to 300 |

| SMILES | EC50 [nM] |
| --- | --- |
| Cc1ccc([C@@]2(C)C[C@@H]3[C@@H]([C@@H](C)C2)N(C)OC3(C)C)s1 (racemic) [Compound 41, rac-(3aR,5R,7S,7aR)-1,3,3,5,7-pentamethyl-5-(5-methylthiophen-2-yl)octahydrobenzo[c]isoxazole] | 300 to 1000 |
| CC(C)N1OC(C)(C)[C@@H]2C[C@](C)(c3cccc(C#N)c3)C[C@H](C)[C@H]21 (racemic) [Compound 127, rac-3-((3aR,5R,7S,7aR)-1-isopropyl-3,3,5,7-tetramethyloctahydrobenzo[c]isoxazol-5-yl)benzonitrile] | < 50 |
| CSc1ccc([C@@]2(C)C[C@@H]3[C@@H]([C@@H](C)C2)N(C)OC3(C)C)cc1 (racemic) [Compound 40, rac-(3aR,5R,7S,7aR)-1,3,3,5,7-pentamethyl-5-(4-(methylthio)phenyl)octahydrobenzo[c]isoxazole] | 50 to 300 |
| Cc1c(C#N)cccc1C1(C)CC(C)C2C(C1)C(C)(C)ON2C (stereo not drawn) [Compound 15, 2-methyl-3-(1,3,3,5,7-pentamethyloctahydrobenzo[c]isoxazol-5-yl)benzonitrile] | 300 to 1000 |
| CCN1OC(C)(C)[C@@H]2C[C@H](C)C[C@H](C)[C@H]21 (racemic) [Compound 56, rac-(3aR,5R,7S,7aR)-1-ethyl-3,3,5,7-tetramethyloctahydrobenzo[c]isoxazole] | 1000 to 35000 |
| COc1ccc([C@@]2(C)C[C@@H]3[C@@H]([C@@H](C)C2)N(C)OC3(C)C)cc1 (racemic) [Compound 104, rac-(3aR,5R,7S,7aR)-5-(4-methoxyphenyl)-1,3,3,5,7-pentamethyloctahydrobenzo[c]isoxazole] | 300 to 1000 |
| C[C@H]1C[C@@](C)(c2ccoc2)C[C@@H]2[C@@H]1N(C)OC2(C)C (racemic) [Compound 110, rac-(3aR,5R,7S,7aR)-5-(furan-3-yl)-1,3,3,5,7-pentamethyloctahydrobenzo[c]isoxazole] | 300 to 1000 |
| C[C@H]1C[C@@](C)(c2cccc(F)c2)C[C@@H]2[C@@H]1N(C)OC2(C)C (racemic) [Compound 92, rac-(3aR,5R,7S,7aR)-5-(3-fluorophenyl)-1,3,3,5,7-pentamethyloctahydrobenzo[c]isoxazole] | 50 to 300 |
| CCC[C@@]1(C)C[C@@H]2[C@@H]([C@@H](C)C1)N(C(C)C)OC2(C)C (racemic) [Compound 61, rac-(3aR,5R,7S,7aR)-1-isopropyl-3,3,5,7-tetramethyl-5-propyloctahydrobenzo[c]isoxazole] | 1000 to 35000 |
| C[C@H]1C[C@@](C)(c2ccc(F)cc2F)C[C@@H]2[C@@H]1N(C)OC2(C)C (racemic) [Compound 70, rac-(3aR,5R,7S,7aR)-5-(2,4-difluorophenyl)-1,3,3,5,7-pentamethyloctahydrobenzo[c]isoxazole] | 50 to 300 |
| CCCC[C@@H]1CC[C@@H]2[C@@H](C1)C(C)(C)ON2CC (racemic) [Compound 28, rac-(3aR,5R,7aR)-5-butyl-1-ethyl-3,3-dimethyloctahydrobenzo[c]isoxazole] | 300 to 1000 |
| Cc1cccc([C@@]2(C)C[C@@H]3[C@@H]([C@@H](C)C2)N(C)OC3(C)C)c1C (racemic) [Compound 69, rac-(3aR,5R,7S,7aR)-5-(2,3-dimethylphenyl)-1,3,3,5,7-pentamethyloctahydrobenzo[c]isoxazole] | 50 to 300 |
| CCc1ccccc1[C@@]1(C)C[C@@H]2[C@@H]([C@@H](C)C1)N(C)OC2(C)C (racemic) [Compound 78, rac-(3aR,5R,7S,7aR)-5-(2-ethylphenyl)-1,3,3,5,7-pentamethyloctahydrobenzo[c]isoxazole] | 50 to 300 |
| COc1ccccc1[C@@]1(C)C[C@@H]2[C@@H]([C@@H](C)C1)N(C)OC2(C)C (racemic) [Compound 82, rac-(3aR,5R,7S,7aR)-5-(2-methoxyphenyl)-1,3,3,5,7-pentamethyloctahydrobenzo[c]isoxazole] | 50 to 300 |
| COc1ccc([C@@]2(C)C[C@@H]3[C@@H]([C@@H](C)C2)N(C(C)C)OC3(C)C)cc1 (racemic) [Compound 67, rac-(3aR,5R,7S,7aR)-1-isopropyl-5-(4-methoxyphenyl)-3,3,5,7-tetramethyloctahydrobenzo[c]isoxazole] | 1000 to 35000 |
| CSc1ccccc1[C@]1(C)C[C@@H](C)[C@@H]2[C@@H](C1)C(C)(C)ON2C (racemic) [Compound 31, rac-(3aR,5R,7R,7aR)-1,3,3,5,7-pentamethyl-5-(2-(methylthio)phenyl)octahydrobenzo[c]isoxazole] | 1000 to 35000 |
